Measurements: US20130065922A1, “NOVEL AMIDES AS FUNGICIDES” (priority 2010, published 2013)
Where two headings read alike, the source gives them in different places.

Tests used:
Plasmopara viticola = assay: whole plant or invertebrate; assay type: in vivo; conditions: foliar, read-out: inhibit fungal infestation
[1] = system: Blumeria graminis f. Sp. tritici (Erysiphe graminis f. Sp. tritici); assay: Blumeria graminis f. Sp. tritici (Erysiphe graminis f. Sp. tritici)/Wheat/Leaf Disc Preventative (Powdery Mildew on Wheat); assay type: in vivo; conditions: foliar, read-out: inhibit fungal infestation
Pythium ultimum = assay: Pythium ultimum/Liquid Culture (Seedling Damping Off); assay type: cell-based; conditions: Globisporangium ultimum, read-out: inhibit fungal infestation
Phytophthora infestans = assay: whole plant or invertebrate; assay type: in vivo; conditions: in Solanum lycopersicum, foliar, read-out: inhibit fungal infestation
[2] = system: Phaeosphaeria nodorum (Septoria nodorum); assay: Phaeosphaeria nodorum (Septoria nodorum)/Wheat/Leaf Disc Preventative (Glume Blotch); assay type: in vivo; conditions: Parastagonospora nodorum, foliar, read-out: inhibit fungal infestation
[3] = 200 ppm, wheat leaf segments cv. Kanzler, preventative, 6-8 days after application, untreated control infected to over 80%
[4] = 200 ppm, liquid culture (PDB), 24° C., growth inhibition photometrically 2-3 days after application
[5] = 200 ppm, wheat leaf segments cv. Kanzler, preventative, 5-7 days after application, untreated control infected to over 80%

Row | SMILES | inhibition at 200 ppm (Plasmopara viticola) [%] | inhibition at 200 ppm [1, 3] [%] | inhibition at 200 ppm (Pythium ultimum; [4]) [%] | melting point [°C] | inhibition at 200 ppm (Phytophthora infestans) [%] | inhibition at 200 ppm [2, 5] [%] | inhibition at 200 ppm [1] [%] | inhibition at 200 ppm (Pythium ultimum) [%] | inhibition at 200 ppm [2] [%]
1 | C#CC(C)(COC)NC(=O)C(Oc1ccc2ncc(OC)cc2c1)SC (stereo not drawn) [Compound 5, N-(1-Methoxymethyl-1-methyl-prop-2-ynyl)-2-(3-methoxy-quinolin-6-yloxy)-2-methylsulfanyl-acetamide] | ≥ 80 | ≥ 80 | ≥ 80 | 112 to 118 | ≥ 80 | ≥ 80 |  |  | 
2 | CC#CC(C)(C)NC(=O)C(Oc1ccc2ncc(OC)cc2c1)SC (stereo not drawn) [Compound 11, N-(1,1-Dimethyl-but-2-ynyl)-2-(3-methoxy-quinolin-6-yloxy)-2-methylsulfanyl-acetamide] | ≥ 80 |  |  | 137 to 139 | ≥ 80 |  | ≥ 80 | ≥ 80 | ≥ 80
3 | C#CC(C)(C)NC(=O)C(Oc1ccc2ncc(OC)cc2c1)SC (stereo not drawn) [Compound 10, N-(1,1-Dimethyl-prop-2-ynyl)-2-(3-methoxy-quinolin-6-yloxy)-2-methylsulfanyl-acetamide] | ≥ 80 | ≥ 80 | ≥ 80 | 152 to 154 | ≥ 80 | ≥ 80 |  |  | 
4 | CCOc1cnc2c(C)cc(OC(SC)C(=O)NC(C)(C)/C=N/OC)cc2c1 (stereo not drawn) [Compound 21, 2-(3-Ethoxy-8-methyl-quinolin-6-yloxy)-N-(2-methoxyimino-1,1-dimethyl-ethyl)-2-methylsulfanyl-acetamide] | ≥ 80 | ≥ 80 | ≥ 80 | 125 to 126 | ≥ 80 | ≥ 80 |  |  | 
5 | CO/N=C/C(C)(C)NC(=O)C(Oc1cc(C)c2ncc(OC)cc2c1)SC (stereo not drawn) [Compound 19, N-(2-Methoxyimino-1,1-dimethyl-ethyl)-2-(3-methoxy-8-methyl-quinolin-6-yloxy)-2-methylsulfanyl-acetamide] | ≥ 80 | ≥ 80 | ≥ 80 | 121 to 124 | ≥ 80 | ≥ 80 |  |  | 
6 | CCOc1cnc2c(C)cc(OC(SC)C(=O)NC(C)(C)C#CCOC)cc2c1 (stereo not drawn) [Compound 22] | ≥ 80 |  |  | 107 to 109 | ≥ 80 |  | ≥ 80 | ≥ 80 | ≥ 80
7 | CC#CC(C)(C)NC(=O)C(Oc1cc(Cl)c2ncc(OC)cc2c1)SC (stereo not drawn) [Compound 14, 2-(8-Chloro-3-methoxy-quinolin-6-yloxy)-N-(1,1-dimethyl-but-2-ynyl)-2-methylsulfanyl-acetamide] | ≥ 80 |  |  | 133 to 136 | ≥ 80 |  | ≥ 80 | ≥ 80 | ≥ 80
